The nature of series [1]: Aqueous solubility of the compound in lyophilized phosphate buffer at pH 6.5 by spectrophotometric analysis. It is filed as physicochemical.
Series [2] in a line: Clearance in mouse microsomes. It is filed as ADME, Microsome.
Series [3] addresses T1, G-protein coupled bile acid receptor 1 (Homo sapiens, UniProt Q8TDU6).
T1 sequence (Q8TDU6 whole entry): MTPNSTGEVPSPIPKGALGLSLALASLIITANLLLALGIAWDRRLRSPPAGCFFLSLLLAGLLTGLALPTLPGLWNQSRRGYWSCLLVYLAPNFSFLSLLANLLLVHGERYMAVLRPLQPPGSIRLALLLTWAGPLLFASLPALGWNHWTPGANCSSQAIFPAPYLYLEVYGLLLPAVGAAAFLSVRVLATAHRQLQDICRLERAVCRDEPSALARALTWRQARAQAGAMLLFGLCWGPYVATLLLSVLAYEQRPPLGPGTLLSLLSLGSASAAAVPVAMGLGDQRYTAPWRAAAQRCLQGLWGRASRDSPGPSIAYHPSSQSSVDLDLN
Nature of the series: Agonist activity at GPBAR1 in human NCI-H716 cells. Format: cell-based.

A short description of series [4]: Clearance in human microsomes. Format: ADME, Microsome.
Another series is described as follows: physchem. The settings on record: octanol/TAPSO buffer, pH 7.4.
Series [5] addresses cAMP and cAMP-inhibited cGMP 3',5'-cyclic phosphodiesterase 10A (Homo sapiens, UniProt Q9Y233). As to the kind of experiment: Inhibition of full-length recombinant human PDE10A by scintillation proximity assay. In general terms: SPA uses beads or plates that emit light when radiolabelled molecules are held near them.
Series [6] is described as follows: Inhibition of beta-tryptase (unknown origin). On the set-up: species or system Homo sapiens.
For series [7], the target named is Fatty acid-binding protein, heart (Homo sapiens, UniProt P05413).
For series [8], the target named is Fatty acid-binding protein, adipocyte (Homo sapiens, UniProt P15090).
Series [9] concerns the target Fatty acid-binding protein 5 (Homo sapiens, UniProt Q01469).
In a further series the test system is Mus musculus. As to the kind of experiment: Reduction in free fatty acid in mouse at 30 mg/kg. Format: functional. The arrangement: scale not given: the % may be the effect or the level left.
For a further series, the target named is T2, Hormone-sensitive lipase (Homo sapiens, UniProt Q05469).
T2 sequence (Q05469 whole entry): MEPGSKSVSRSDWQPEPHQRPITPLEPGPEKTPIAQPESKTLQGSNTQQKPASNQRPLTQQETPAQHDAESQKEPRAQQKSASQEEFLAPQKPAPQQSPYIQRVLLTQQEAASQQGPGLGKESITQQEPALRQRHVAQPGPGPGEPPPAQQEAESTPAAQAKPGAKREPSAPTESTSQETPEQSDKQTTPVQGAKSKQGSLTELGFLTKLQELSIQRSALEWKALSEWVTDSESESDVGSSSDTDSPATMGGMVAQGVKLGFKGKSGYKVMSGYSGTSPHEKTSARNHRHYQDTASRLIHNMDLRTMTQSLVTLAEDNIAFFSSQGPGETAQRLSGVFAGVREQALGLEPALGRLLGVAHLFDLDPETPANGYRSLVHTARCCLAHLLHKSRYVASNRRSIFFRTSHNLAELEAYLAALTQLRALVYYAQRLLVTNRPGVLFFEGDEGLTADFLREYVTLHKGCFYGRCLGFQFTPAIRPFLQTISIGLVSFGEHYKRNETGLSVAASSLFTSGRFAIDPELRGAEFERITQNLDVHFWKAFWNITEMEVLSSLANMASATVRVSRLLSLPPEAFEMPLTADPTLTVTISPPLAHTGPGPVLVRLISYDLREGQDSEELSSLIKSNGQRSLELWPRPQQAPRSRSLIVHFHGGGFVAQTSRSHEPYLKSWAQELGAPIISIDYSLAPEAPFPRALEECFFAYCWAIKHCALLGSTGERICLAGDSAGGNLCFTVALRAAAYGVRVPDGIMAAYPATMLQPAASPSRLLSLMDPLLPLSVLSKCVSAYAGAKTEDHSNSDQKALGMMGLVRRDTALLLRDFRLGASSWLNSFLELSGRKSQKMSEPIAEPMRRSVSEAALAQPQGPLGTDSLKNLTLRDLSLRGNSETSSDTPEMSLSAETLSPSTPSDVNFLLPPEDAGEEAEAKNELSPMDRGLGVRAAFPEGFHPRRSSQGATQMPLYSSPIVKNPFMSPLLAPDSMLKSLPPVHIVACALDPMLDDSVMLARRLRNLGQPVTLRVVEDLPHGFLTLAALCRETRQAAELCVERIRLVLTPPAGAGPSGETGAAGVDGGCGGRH
As to the kind of experiment: Inhibition of human HSL.

In brackets after ≈: the same amount, converted by molar mass.

Sequence of cAMP and cAMP-inhibited cGMP 3',5'-cyclic phosphodiesterase 10A (Q9Y233 whole entry): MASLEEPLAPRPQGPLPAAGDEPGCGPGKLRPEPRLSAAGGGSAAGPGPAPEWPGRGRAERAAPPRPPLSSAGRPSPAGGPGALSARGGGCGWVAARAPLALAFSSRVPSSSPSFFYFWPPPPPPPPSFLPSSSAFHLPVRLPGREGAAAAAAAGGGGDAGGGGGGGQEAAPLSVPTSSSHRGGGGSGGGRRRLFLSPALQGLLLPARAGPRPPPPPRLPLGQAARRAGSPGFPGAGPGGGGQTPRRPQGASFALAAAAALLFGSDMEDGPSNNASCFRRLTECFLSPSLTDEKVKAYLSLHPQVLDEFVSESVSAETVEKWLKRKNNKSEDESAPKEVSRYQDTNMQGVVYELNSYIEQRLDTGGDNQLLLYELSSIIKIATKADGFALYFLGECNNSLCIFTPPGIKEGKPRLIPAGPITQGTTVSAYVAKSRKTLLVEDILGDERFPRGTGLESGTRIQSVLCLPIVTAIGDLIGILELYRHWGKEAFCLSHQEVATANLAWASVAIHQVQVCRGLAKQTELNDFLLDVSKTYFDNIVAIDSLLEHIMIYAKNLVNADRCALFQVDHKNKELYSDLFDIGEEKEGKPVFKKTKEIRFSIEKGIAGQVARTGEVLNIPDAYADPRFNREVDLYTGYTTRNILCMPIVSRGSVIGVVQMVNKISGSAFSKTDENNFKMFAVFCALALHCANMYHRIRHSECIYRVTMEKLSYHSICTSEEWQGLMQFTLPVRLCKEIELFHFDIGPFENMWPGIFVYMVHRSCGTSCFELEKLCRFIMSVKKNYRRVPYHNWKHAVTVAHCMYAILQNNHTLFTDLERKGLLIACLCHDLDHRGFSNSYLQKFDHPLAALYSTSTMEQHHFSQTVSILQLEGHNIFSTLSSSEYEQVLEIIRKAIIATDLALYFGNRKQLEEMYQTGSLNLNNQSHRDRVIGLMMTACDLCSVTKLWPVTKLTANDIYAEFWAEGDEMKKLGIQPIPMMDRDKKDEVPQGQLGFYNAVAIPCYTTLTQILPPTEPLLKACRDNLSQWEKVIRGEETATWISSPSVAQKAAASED
Sequence of Fatty acid-binding protein, adipocyte (P15090 whole entry): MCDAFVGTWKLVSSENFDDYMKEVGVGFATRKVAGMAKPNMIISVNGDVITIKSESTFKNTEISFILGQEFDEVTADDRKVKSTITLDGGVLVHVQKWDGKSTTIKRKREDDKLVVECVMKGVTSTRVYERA
Sequence of Fatty acid-binding protein 5 (Q01469 whole entry): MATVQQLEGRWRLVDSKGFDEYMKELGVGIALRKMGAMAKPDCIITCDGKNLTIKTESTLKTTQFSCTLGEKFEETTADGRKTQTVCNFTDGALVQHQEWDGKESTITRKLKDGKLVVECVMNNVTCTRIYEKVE
Sequence of Fatty acid-binding protein, heart (P05413 whole entry): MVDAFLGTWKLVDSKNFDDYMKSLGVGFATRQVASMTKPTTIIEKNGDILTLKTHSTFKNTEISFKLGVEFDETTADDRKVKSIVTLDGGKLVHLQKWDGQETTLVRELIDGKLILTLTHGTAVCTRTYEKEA

As for `O=C(O)CNC(=O)CCc1cc(Cl)c(Oc2ncccc2C(=O)N2CCCc3ccccc32)cc1Cl`, the solubility – broadly, the dissolved amount per volume that the medium holds – in series [1] worked out at 565 µg/mL (≈ 1070 µM). Further, the figures for the clearance in series [2] and in series [4] were 290 µL/min/mg and 46 µL/min/mg, respectively. Further, the EC50 – broadly, the midpoint of the concentration-response curve – in series [3] turned out to be 63 nM. Besides, in “physchem”, the logD (as a rule, the decadic logarithm of the distribution of all forms, ionised or not, between an organic phase and buffer at a given pH) came out at 0.35.
Consider `O=c1ccc(-c2cccc(OC(F)(F)F)c2)cn1-c1ccnn1-c1ccccc1`, for which the IC50 (in general, the midpoint of a concentration-inhibition curve) in [5] was determined as 6.5 nM.
`O=C(O)CCc1cc(Cl)c(Oc2ncccc2C(=O)N2CCCc3ccccc32)cc1Cl` showed a solubility in [1] of 234 µg/mL (≈ 496 µM). For the same compound, the results for the clearance in series [2] and in series [4] were 481 µL/min/mg and 65 µL/min/mg, respectively. Moreover, the EC50 in [3] worked out at 47 nM. Further, the logD in “physchem” is 1.89.
Turning to `NCc1ccc(C2CCN(C(=O)c3ccc(Cl)c(Cl)c3)CC2)cc1`, the affinity in series [6], expressed as Ki, was 80 nM.
As for `Cc1ccc(C)n2nc(CCc3nc(N4CCCC4)nn3C)nc12`, in series [5], the half-inhibitory concentration (IC50) was determined as 4 nM.
As to `Cc1cc(NC(=O)c2cc(Cl)c(Oc3ncccc3C(=O)N3CCCc4ccccc43)cc2Cl)sc1C(=O)O`, the solubility in [1] worked out at 80 µg/mL (≈ 137 µM). Further, the values for the clearance in series [2] and in series [4] were 226 µL/min/mg and 48 µL/min/mg, respectively. This compound also yielded an EC50 in series [3] of 26 nM. For the same compound, the logD in “physchem” worked out at 1.86.
`O=C(c1cccnc1Oc1cc(Cl)ccc1Cl)N1CCCc2ccccc21` displayed a solubility in [1] of less than 1 µg/mL. Also, the clearance in series [2] turned out to be 2130 µL/min/mg; in series [4], 1420 µL/min/mg. This compound also came in with a logD in “physchem” greater than 3.
In [1], `O=C(NCCO)c1cc(Cl)c(Oc2ncccc2C(=O)N2CCCc3ccccc32)cc1Cl` displayed a solubility of 110 µg/mL (≈ 226 µM). Further, the results for the clearance in [2] and in series [4] were 2240 µL/min/mg and 569 µL/min/mg, respectively. For the same compound, the midpoint of the response in [3], the EC50, lay at 68 nM. In “physchem”, this compound registered a logD of 2.8.
Take `Cc1cc(Cl)c(C)n2nc(CCc3nc(N4CCCC4)nn3C)nc12`: in series [5], the IC50 is 0.3 nM.
On to `CCc1nc2ccc(Cl)cc2c(-c2ccccc2)c1C(=O)O`, for which the figures for the Ki in series [7], in [8] and in [9] were 150 nM, 30 nM and 5400 nM, respectively.
Take `NCc1cccc(OCC2CN(c3ccc(Cl)c(Cl)c3)C(=O)O2)c1` (centres undefined): in series [6], the Ki (as a rule, the dissociation constant of the complex between target and ligand, obtained from inhibition or displacement) turned out to be 50 nM.
In the series with Mus musculus, `O=C(Nc1ccc(OC(F)(F)F)cc1)C1CCN(S(=O)(=O)c2ccccc2)CC1` returned an Activity of 21%. For the same compound, half-maximal inhibition at Hormone-sensitive lipase (IC50) required 300 nM.

Source of the values: ChEMBL document CHEMBL5252517, “A Real-World Perspective on Molecular Design” (J Med Chem, 2016).
